# Measured values as given in patent publication US9801380B2, “Low VOC gibberellin formulations” (Valent BioSciences Corporation, priority 2013, dated 2017).
# Test: Stability tests: observation for solubility after mixing
# Conditions: 5.95% GA3 TGAI
# Method: The stability tests were performed as follows. The solvent was charged in a 150 mL glass beaker containing a magnetic stir bar. The solvent was warmed on a hot plate while stirring. The polysorbate surfactant was charged when the solvent temperature reached 30 to 38 degrees Celsius. The formulations were mixed until they were solubilized (1 to 4 minutes). Then the GA3 TGAI was added under stirring and the temperature was raised to 38 to 41 degrees Celsius. The heat was discontinued and the formulations were mixed for 30 to 50 minutes. The formulations were then observed for solubility.
compound,measurement,setting,value
"C=C1C[C@]23C[C@@]1(O)CC[C@H]2[C@@]12C=C[C@H](O)[C@@](C)(C(=O)O1)[C@H]2[C@@H]3C(=O)O [GA3, gibberellic acid]",Solubility of GA3 in the formulation,Formulation B (triethyl citrate),not soluble
same,Solubility of GA3 in the formulation,"Formulations A and D (PEG 300, PEG 400)",soluble
